Source: US8541462B2, “Tetrahydrocarbazole derivatives as ligands of G-protein coupled receptors” (AEterna Zentaris GmbH, priority 2007, dated 2013)

Assay: Metabolic stability testing in liver microsomes
Format: in vitro ADME
Details: mixed-gender human liver microsomes, 1 mg microsomal protein/mL, initial concentration 10 μM, 60 minutes at 37° C.; WO 2006/005484-substance 7 = 100%
Description: Subcellular fractions of different tissues can be prepared easily by ultracentrifugation. Most commonly these are prepared from the liver of animals and human donors to gain information about the potential hepatic clearance of compounds (first-pass elimination of drugs). Human or animal (e.g. dog, mouse, rat) subcellular fraction like liver microsomes, or possibly the fraction called S9 have therefore become a very commonly and widely used as an in vitro model to investigate mainly cytochrome P450 dependent phase I (but also phase II) metabolism that takes place in the liver.
In order to reflect the standard proportion of the enzymes in human and animal livers, liver microsomes are usually pooled from a number of […] of the same sex (or mixed-gender). By supplementing the liver microsomes with relevant cofactors and other components it is possible to investigate and distinguish between CYPs, flavin-containing monooxygenase (FMO) and UDP-glucuronosyltransferase (UGT) activities.
Selected compounds of the invention were tested for their stability in mixed-gender human liver microsomes and compared to pertinent prior art compounds.
Under the test conditions applied (1 mg microsomal protein/mL, initial concentration of 10 μM, and incubation for 60 minutes at 37° C.) the following normalized results were obtained.

| Compound | Normalized microsomal stability |
| --- | --- |
| CCC(C)[C@H](NC(=O)Cc1ccccc1F)C(=O)N[C@]1(C(=O)N[C@H](C(=O)NNC(=O)c2ccccc2)C(C)CC)CCc2[nH]c3c(C(F)(F)F)cccc3c2C1 (stereo partly drawn) [compound 242, (R)-3-{(S)-2-[2-(2-Fluoro-phenyl)-acetylamino]-3-methyl-pentanoylamino}-8-trifluoromethyl-2,3,4,9-tetrahydro-1H-carbazole-3-carboxylic acid [(S)-1-(N′-benzoyl-hydrazinocarbonyl)-2-methyl-butyl]-amide] | 1322% |
| CCC(C)[C@H](NC(=O)NCc1ccccc1F)C(=O)N[C@]1(C(=O)N[C@H](C(=O)NNc2ccccc2)C(C)CC)CCc2[nH]c3c(C(F)(F)F)cccc3c2C1 (stereo partly drawn) [compound 244, (R)-3-{(S)-2-[3-(2-Fluoro-benzyl)-ureido]-3-methyl-pentanoylamino}-8-trifluoromethyl-2,3,4,9-tetrahydro-1H-carbazole-3-carboxylic acid [(S)-2-methyl-1-(N′-phenyl-hydrazinocarbonyl)-butyl]-amide] | 1096% |
| CC[C@H](C)[C@H](NC(=O)Cc1ccccc1F)C(=O)N[C@]1(C(=O)N[C@H](c2nc(-c3ccccc3)cs2)[C@@H](C)CC)CCc2[nH]c3c(C(F)(F)F)cccc3c2C1 [compound 249, (R)-3-{(2S,3S)-2-[2-(2-Fluoro-phenyl)-acetylamino]-3-methyl-pentanoylamino}-8-trifluoromethyl-2,3,4,9-tetrahydro-1H-carbazole-3-carboxylic acid [(1S,2S)-2-methyl-1-(4-phenyl-thiazol-2-yl)-butyl]-amide] | 1580% |
| CC[C@H](C)[C@H](NC(=O)Cc1ccccc1F)C(=O)N[C@]1(C(=O)N[C@H](c2nc(-c3ccc(OC)cc3)cs2)[C@@H](C)CC)CCc2[nH]c3c(C(F)(F)F)cccc3c2C1 [compound 250, (R)-3-{(2S,3S)-2-[2-(2-Fluoro-phenyl)-acetylamino]-3-methyl-pentanoylamino}-8-trifluoromethyl-2,3,4,9-tetrahydro-1H-carbazole-3-carboxylic acid {(1S,2S)-1-[4-(4-methoxy-phenyl)-thiazol-2-yl]-2-methyl-butyl}-ami] | 1491% |
| CC[C@H](C)[C@H](NC(=O)Cc1ccccc1F)C(=O)N[C@]1(C(=O)N[C@H](c2nc(C(=O)O)cs2)[C@@H](C)CC)CCc2[nH]c3c(C(F)(F)F)cccc3c2C1 [compound 256, 2-{(1S,2S)-1-[((R)-3-{(2S,3S)-2-[2-(2-Fluoro-phenyl)-acetylamino]-3-methyl-pentanoylamino}-8-trifluoromethyl-2,3,4,9-tetrahydro-1H-carbazole-3-carbonyl)-amino]-2-methyl-butyl}-thiazole-4-carboxylic acid] | 1194% |
| CCOC(=O)c1csc([C@@H](NC(=O)[C@@]2(NC(=O)[C@@H](NC(=O)NCc3ccccc3F)[C@@H](C)CC)CCc3[nH]c4c(C(F)(F)F)cccc4c3C2)[C@@H](C)CC)n1 [compound 258, 2-{(1S,2S)-1-[((R)-3-{(2S,3S)-2-[3-(2-Fluoro-benzyl)-ureido]-3-methyl-pentanoylamino}-8-trifluoromethyl-2,3,4,9-tetrahydro-1H-carbazole-3-carbonyl)-amino]-2-methyl-butyl}-thiazole-4-carboxylic acid ethyl ester] | 1215% |
